Test results reported in US8178551B2 (Green Cross Corporation, priority 2007, dated 2012).
Where a name gives a salt, the structure may show the parent alone.

Key:
[1] = Drug transport assay with MDCK monolayers (apparent permeability, Papp); type: in vitro ADME; details: dog, MDCK, apical to basolateral, 37° C.
Method: (§1) Experiment 1. Permeability Measurement by Performing a Drug Transport Assay with MDCK Monolayers
(§2) (+)-3-HM was dissolved in DMSO at 10 mM and stored at 4° C. MDCK cells were obtained from the ATCC (American Type Culture Collection, CCL-34). MDCK cells were maintained in DMEM (Dulbecco's MEM with high glucose) containing 1×NEAA (Non-essential amino acids), 10 mM HEPES, 100 units penicillin, 0.1 mg/ml streptomycin and 8% FBS. The cells were cultivated in T-75 flasks in a cell culture incubator at 37° C. MDCK cells were passaged twice per week. When the cells were 90% confluence, the cells were plated at 1×10^5 cells/well in transwell. The cells were fed with fresh medium every other day. The Cells were grown to confluence on the transwell for 5 days. When the cells have reached confluence and are differentiated, they are ready to be used for transport studies. The TEER (Transepithelial electrical resistance) of each well was measured by Millicell-ERS system ohm meter. The electrode was immersed in 70% ethanol and PBS for 15 minutes. […] MDCK monolayers with TEER values >400Ω were used. After the each well was washed by using sterile HBSS (hank's buffered solution) and (+)-3-HM was diluted 100-fold in HBSS, the apical wells were filled with 200 ul of the test compounds. The basolateral wells were filled with 1 ml of HBSS buffer. Only 0.1% DMSO treated wells prepared to adjust for analysis. The cells were incubated at 37° C. for 1 hour. At the end of the transport period, the result samples were removed from the apical (150 ul) and basolateral (900 ul) wells. The representative compounds of Examples were conducted in same conditions.
(§3) Experiment 2. The HPLC Analysis and the Calculation of Papp
(§4) HPLC analyses were performed using a WATERS HPLC system. A ZORBAX Eclipse XDB-C18 (4.6×250 mm, 5 μm particle size) was used. The optimal operating conditions are as followed; Mobile phase A is composed of distilled water-acetonitrile (ACN) (9:1, v/v) with 0.1% trifluoroacetic acid (TFA), and mobile phase B is 90% acetonitrile with 0.1% TFA. All buffers were used after the 0.45 μm filtration.
(§5) The UV detection was performed at 280 nm or the fluorescence detection was performed at Excitation in 228 nm and Emission in 330 nm.
(§6) The concentration of A and B buffer was performed by the gradient method and the total analysis time was 38 min. The optimal operating conditions: elution gradient 0-10 min (10-50%), 10-20 min (50-90%), 20-25 min (90%), 25-27 min (90-10%), 27-38 min (10%). After the analysis of HPLC, the percentage of area of (+)-3-HM and the compound of Example 2 were calculated by remained concentration (μg/ml).
(§7) The apparent permeability coefficients (Papp), expressed in nm/sec, were calculated by the following equation: Permeability (Papp)=(Receiver Volume×Receiver Conc.)/(Filter surface area×Reaction Time×donor Conc.)×10^7.

MDCK monolayers [2] = experiment: as above; type: in vitro ADME; details: apical to basolateral, 37° C., 1 hour
Method: as §1, §2, §3, §4, §5, §6, §7

[3] = system: MPTP-induced Parkinson's disease animal model; details: daily injections, literature; cited from earlier work
MDCK monolayers [4] = details: MDCK Papp; cited from earlier work
[5] = known drugs; cited from earlier work

## CCC(C)OC(=O)OCOc1ccc2c(c1)[C@]13CCCC[C@@H]1[C@H](C2)NCC3 (single isomer, unassigned; (+)) [Example 25, (+)-sec-Butyl(morphinan-3-yloxy)methyl carbonate TFA]
[1]
  Papp A→B at 1 h, 100 µM: 20.3 ×10⁻⁶ cm/s

## CC(C)OC(=O)OCOc1ccc2c(c1)[C@]13CCCC[C@@H]1[C@H](C2)NCC3 [Example 2, (+)-Isopropyl(morphinan-3-yloxy)methyl carbonate]
[1]
  Papp A→B at 1 h, 100 µM: 26.2 ×10⁻⁶ cm/s

## CCCOC(=O)OCOc1ccc2c(c1)[C@]13CCCC[C@@H]1[C@H](C2)NCC3 [Example 3, (+)-(Morphinan-3-yloxy)methyl propyl carbonate]
[1]
  Papp A→B at 1 h, 100 µM: 21.9 ×10⁻⁶ cm/s

## O=C(OCOc1ccc2c(c1)[C@]13CCCC[C@@H]1[C@H](C2)NCC3)OCC1CC1 [Example 4, (+)-Cyclopropylmethyl(morphinan-3-yloxy)methyl carbonate]
[1]
  Papp A→B at 1 h, 100 µM: 15.3 ×10⁻⁶ cm/s

## O=C(OCOc1ccc2c(c1)[C@]13CCCC[C@@H]1[C@H](C2)NCC3)OC1CCCC1 [Example 6, (+)-Cyclopentyl(morphinan-3-yloxy)methyl carbonate]
[1]
  Papp A→B at 1 h, 100 µM: 20.6 ×10⁻⁶ cm/s

## O=C(OCOc1ccc2c(c1)[C@]13CCCC[C@@H]1[C@H](C2)NCC3)OC1CCCCC1 [Example 8, (+)-Cyclohexyl(morphinan-3-yloxy)methyl carbonate]
[1]
  Papp A→B at 1 h, 100 µM: 19.7 ×10⁻⁶ cm/s

## O=C(OCOc1ccc2c(c1)[C@]13CCCC[C@@H]1[C@H](C2)NCC3)OCC1CCCCC1 [Example 9, (+)-Cyclohexylmethyl(morphinan-3-yloxy)methyl carbonate]
[1]
  Papp A→B at 1 h, 100 µM: 48.7 ×10⁻⁶ cm/s

## O=C(OCOc1ccc2c(c1)[C@]13CCCC[C@@H]1[C@H](C2)NCC3)OCC1CCCC1 [Example 15, (+)-Cyclopentylmethyl(morphinan-3-yloxy)methyl carbonate TFA]
[1]
  Papp A→B at 1 h, 100 µM: 33.7 ×10⁻⁶ cm/s

## O=C(OCOc1ccc2c(c1)[C@]13CCCC[C@@H]1[C@H](C2)NCC3)OCC1CCC1 [Example 17, (+)-Cyclobutylmethyl(morphinan-3-yloxy)methyl carbonate TFA]
[1]
  Papp A→B at 1 h, 100 µM: 22.7 ×10⁻⁶ cm/s

## CC(C)COC(=O)OCOc1ccc2c(c1)[C@]13CCCC[C@@H]1[C@H](C2)NCC3 [Example 23, (+)-Isobutyl(morphinan-3-yloxy)methyl carbonate TFA]
[1]
  Papp A→B at 1 h, 100 µM: 20.3 ×10⁻⁶ cm/s

## O=C(OCOc1ccc2c(c1)[C@]13CCCC[C@@H]1[C@H](C2)NCC3)OC1CCCCCC1 [Example 27, TFA]
[1]
  Papp A→B at 1 h, 100 µM: 23.4 ×10⁻⁶ cm/s

## CC(Cc1ccccc1)OC(=O)OCOc1ccc2c(c1)[C@]13CCCC[C@@H]1[C@H](C2)NCC3 (stereo partly drawn) [Example 31, (+)-(Morphinan-3-yloxy)methyl 1-phenylpropan-2-yl carbonate TFA]
[1]
  Papp A→B at 1 h, 100 µM: 22.3 ×10⁻⁶ cm/s

## O=C(OCOc1ccc2c(c1)[C@]13CCCC[C@@H]1[C@H](C2)NCC3)OC1CCC1 [Example 37, (+)-Cyclobutyl(morphinan-3-yloxy)methyl carbonate TFA]
[1]
  Papp A→B at 1 h, 100 µM: 13.6 ×10⁻⁶ cm/s

## CCCC(C)OC(=O)OCOc1ccc2c(c1)[C@]13CCCC[C@@H]1[C@H](C2)NCC3 (stereo partly drawn) [Example 41, (+)-(Morphinan-3-yloxy)methyl pentan-2-yl carbonate TFA]
[1]
  Papp A→B at 1 h, 100 µM: 23.1 ×10⁻⁶ cm/s

## CC(C)C(=O)OCOc1ccc2c(c1)[C@]13CCCC[C@@H]1[C@H](C2)NCC3 [Example 44, (+)-(Morphinan-3-yloxy)methyl isobutyrate]
[1]
  Papp A→B at 1 h, 100 µM: 21.2 ×10⁻⁶ cm/s

## CCC(CC)C(=O)OCOc1ccc2c(c1)[C@]13CCCC[C@@H]1[C@H](C2)NCC3 [Example 54, (+)-(Morphinan-3-yloxy)methyl 2-ethylbutanoate TFA]
[1]
  Papp A→B at 1 h, 100 µM: 28.9 ×10⁻⁶ cm/s

## O=C(OCOc1ccc2c(c1)[C@]13CCCC[C@@H]1[C@H](C2)NCC3)C1CCCCC1 [Example 56, (+)-(Morphinan-3-yloxy)methyl cyclohexanoate TFA]
[1]
  Papp A→B at 1 h, 100 µM: 9.43 ×10⁻⁶ cm/s

## O=C(OCOc1ccc2c(c1)[C@]13CCCC[C@@H]1[C@H](C2)NCC3)C1CCCC1 [Example 58, (+)-(Morphinan-3-yloxy)methyl cyclopentanoate TFA]
[1]
  Papp A→B at 1 h, 100 µM: 6.05 ×10⁻⁶ cm/s

## CCCCC(CC)C(=O)OCOc1ccc2c(c1)[C@]13CCCC[C@@H]1[C@H](C2)NCC3 (stereo partly drawn) [Example 60, (+)-(Morphinan-3-yloxy)methyl 2-ethylhexanoate TFA]
[1]
  Papp A→B at 1 h, 100 µM: 20.2 ×10⁻⁶ cm/s

## CCC(C)C(=O)OCOc1ccc2c(c1)[C@]13CCCC[C@@H]1[C@H](C2)NCC3 (stereo partly drawn) [Example 66, (+)-(Morphinan-3-yloxy)methyl 2-methylbutanoate TFA]
[1]
  Papp A→B at 1 h, 100 µM: 16.2 ×10⁻⁶ cm/s

## O=C(OCOc1ccc2c(c1)[C@]13CCCC[C@@H]1[C@H](C2)NCC3)C1CC1 [Example 68, (+)-(Morphinan-3-yloxy)methyl cyclopropanecarboxylate TFA]
[1]
  Papp A→B at 1 h, 100 µM: 10.1 ×10⁻⁶ cm/s

## CC(C)CC(=O)OCOc1ccc2c(c1)[C@]13CCCC[C@@H]1[C@H](C2)NCC3 [Example 70, (+)-(Morphinan-3-yloxy)methyl 3-methylbutanoate TFA]
[1]
  Papp A→B at 1 h, 100 µM: 16.6 ×10⁻⁶ cm/s

## CCC(C(=O)OCOc1ccc2c(c1)[C@]13CCCC[C@@H]1[C@H](C2)NCC3)c1ccccc1 (stereo partly drawn) [Example 72, (+)-(Morphinan-3-yloxy)methyl 2-phenylbutanoate TFA]
[1]
  Papp A→B at 1 h, 100 µM: 13.1 ×10⁻⁶ cm/s

## CC(C)OC(=O)OCOc1ccc2c(c1)[C@]13CCCC[C@@H]1[C@H](C2)NCC3 [Example 80, (+)-Isopropyl(morphinan-3-yloxy)methyl carbonate L-(+)-tartaric acid]
MDCK monolayers [2]
  Papp: 18.57 ×10⁻⁶ cm/s

## CC(C)(C)C(=O)OCOc1ccc2c(c1)[C@]13CCCC[C@@H]1[C@H](C2)NCC3 [Example 105, (+)-(Morphinan-3-yloxy)methyl pivalate salicylic acid]
[1]
  Papp A→B at 1 h, 100 µM: 20.3 ×10⁻⁶ cm/s

## Oc1ccc2c(c1)[C@@]13CCCC[C@H]1[C@@H](C2)NCC3 [HM, (+)-3-hydroxymorphinan]
[1]
  Papp A→B at 1 h, 100 µM: 3.33 ×10⁻⁶ cm/s
[3]
  neuroprotective property in MPTP models (DA neurons in substantia nigra pars compacta, striatal DA levels): dopamine (DA) neurons in substantia nigra pars compacta have been protected and DA levels in striatum has been restored

## CC(=O)Nc1ccc(O)cc1 [acetaminophen]
MDCK monolayers [4]
  Permeability values for known drugs: 35 ×10⁻⁶ cm/s
[5]
  human absorption: 94%

## C[C@@H]1C[C@H]2[C@@H]3CCC4=CC(=O)C=C[C@]4(C)[C@@]3(F)[C@@H](O)C[C@]2(C)[C@@]1(O)C(=O)CO [dexamethasone]
[5]
  human absorption: 98%

## CC(C(=O)O)c1cccc(C(=O)c2ccccc2)c1 (stereo not shown) [ketoprofen]
MDCK monolayers [4]
  Permeability values for known drugs: 20 ×10⁻⁶ cm/s
